US6914045B2, “Glycopeptide antibiotics” (Wyeth Holdings Corporation, priority 2001, dated 2005)

Assays:
[1] = tested on: Staphylococcus aureus-SMITH (GC 4543); assay: acute lethal infection in mice; format: in vivo; details: acute lethal infection, female CD-1 mice, intraperitoneal challenge, intravenous 30 min. after infection, 7 day survival
How it was run: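 Protocol: bacteria suspended in trypticase soy broth or hog gastric mucin injected ip into female CD-1 mice at a level killing untreated controls in 24-48 hr; compound given iv in saline or 5% dextrose 30 min post-challenge; five mice per dose; ED50 derived from pooled 7 day survival of three runs.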

Enterococcus sp. = assay: in vitro antibacterial evaluation, MIC by broth dilution; format: cell-based; details: broth dilution, 18 hours at 35° C.; for MIC Enterococcus faecalis (ATCC 29212): strain ATCC 29212; for MIC Enterococcus faecium (GC 2243): strain GC 2243; for MIC Enterococcus faecalis (GC 4552): strain GC 4552; for MIC Enterococcus faecalis (GC 4553): strain GC 4553; for MIC Enterococcus faecalis (GC 4554): strain GC 4554; for MIC Enterococcus faecium (GC 4556): strain GC 4556; for MIC Enterococcus faecium (GC 4557): strain GC 4557; for MIC Enterococcus avium (GC 4558): strain GC 4558; for MIC Enterococcus faecalis (GC 6189): strain GC 6189
How it was run: (§1)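 Broth dilution per NCCLS M7-A2 in Mueller-Hinton II medium, inoculum 5×10^5 CFU/mL, antibiotic range 64-0.06 μg/mL. MIC taken as lowest concentration inhibiting growth; Gram-positive panel includes recent clinical isolates resistant to methicillin, penicillin and/or vancomycin.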

Escherichia coli = assay: as above; format: cell-based
How it was run: as §1

Staphylococcus sp. = assay: as above; format: cell-based; details: broth dilution, 18 hours at 35° C.; for MIC Staphylococcus aureus (GC 1131): strain GC 1131
How it was run: as §1

Streptococcus sp. = assay: as above; format: cell-based; details: broth dilution, 18 hours at 35° C.
How it was run: as §1

CC(c1ccccc1)C1NC(=O)CNC(=O)C(CO)NC(=O)C(C(O)C2CNC(=N)N2C2OC(CO)C(O)C(O)C2O)NC(=O)C(C(O)C2CNC(=N)N2)NC(=O)C(Cc2ccc(OC3OC(CO)C(OC4OC5COC(c6cc7c(cc6Cl)OCO7)OC5C(O)C4O)C(O)C3O)cc2)NC1=O (stereo not drawn) [Example 158, Cyclo[glycyl-β-methylphenylalanyl-O-[4-O-[4,6-O-[(6-chloro-1,3-benzodioxol-5-yl)-methylene]hexopyranosyl]hexopyranosyl]tyrosyl-3-(2-iminoimidazolidin-4-yl)seryl-3-(3-hexopyranosyl-2-iminoimidazolidin-4-yl)serylseryl]]
2 µg/mL: MIC Enterococcus faecium (GC 4557) (Enterococcus sp.; inoculum 5×10^5 CFU/mL) | MIC Enterococcus faecium (GC 4557) (Enterococcus sp.) | MIC Staphylococcus aureus (GC 1131) (Staphylococcus sp.; inoculum 5×10^5 CFU/mL) | MIC Staphylococcus aureus (ATCC 29213) (Staphylococcus sp.; strain ATCC 29213) | MIC Staphylococcus aureus (GC 1131) (Staphylococcus sp.) | MIC Staphylococcus aureus (GC 3053) (Staphylococcus sp.; strain GC 3053) | MIC Staphylococcus aureus-SMITH (GC 4543) (Staphylococcus sp.; strain GC 4543) | MIC Staphylococcus aureus (GC 4544) (Staphylococcus sp.; strain GC 4544) | MIC Staphylococcus aureus (GC 4545) (Staphylococcus sp.; strain GC 4545) | MIC Coagulase Negative Staphylococcus (GC 4547) (Staphylococcus sp.; strain GC 4547) | MIC Coagulase Negative Staphylococcus (GC 4551) (Staphylococcus sp.; strain GC 4551) | MIC Staphylococcus aureus-SMITH (GC 4543) (Staphylococcus sp.; strain SMITH GC 4543)
4 µg/mL: MIC Enterococcus faecalis (GC 2242) (Enterococcus sp.; Enterococcus faecalis (GC 2242)) | MIC Enterococcus faecalis (GC 2691) (Enterococcus sp.; Enterococcus faecalis (GC 2691)) | MIC Enterococcus faecalis (GC 3059) (Enterococcus sp.; Enterococcus faecalis (GC 3059)) | MIC Enterococcus faecalis (ATCC 29212) (Enterococcus sp.; inoculum 5×10^5 CFU/mL) | MIC Enterococcus faecium (GC 2243) (Enterococcus sp.; inoculum 5×10^5 CFU/mL) | MIC Enterococcus faecalis (GC 4553) (Enterococcus sp.; inoculum 5×10^5 CFU/mL) | MIC Enterococcus faecalis (GC 4554) (Enterococcus sp.; inoculum 5×10^5 CFU/mL) | MIC Enterococcus avium (GC 4558) (Enterococcus sp.; inoculum 5×10^5 CFU/mL) | MIC Enterococcus faecalis (GC 6189) (Enterococcus sp.; inoculum 5×10^5 CFU/mL) | MIC Enterococcus faecalis (ATCC 29212) (Enterococcus sp.) | MIC Enterococcus faecalis (GC 2242) (Enterococcus sp.; strain GC 2242) | MIC Enterococcus faecium (GC 2243) (Enterococcus sp.) | MIC Enterococcus faecalis (GC 2691) (Enterococcus sp.; strain GC 2691) | MIC Enterococcus faecalis (GC 3059) (Enterococcus sp.; strain GC 3059) | MIC Enterococcus faecalis (GC 4553) (Enterococcus sp.) | MIC Enterococcus faecalis (GC 4554) (Enterococcus sp.) | MIC Enterococcus avium (GC 4558) (Enterococcus sp.) | MIC Enterococcus faecalis (GC 6189) (Enterococcus sp.)
1 µg/mL: MIC Escherichia coli (GC 4560) (Escherichia coli; strain GC 4560, 18 hours at 35° C.) | MIC Staphylococcus aureus (GC 3051) (Staphylococcus sp.; strain GC 3051) | MIC Staphylococcus aureus (GC 4541) (Staphylococcus sp.; strain GC 4541) | MIC Staphylococcus aureus (GC 4542) (Staphylococcus sp.; strain GC 4542) | MIC Coagulase Negative Staphylococcus (GC 4548) (Staphylococcus sp.; strain GC 4548) | MIC Coagulase Negative Staphylococcus (GC 4549) (Staphylococcus sp.; strain GC 4549) | MIC Coagulase Negative Staphylococcus (GC 6257) (Staphylococcus sp.; strain GC 6257)
0.25 µg/mL: MIC Streptococcus agalactiae (GC 4564) (Streptococcus sp.; Streptococcus agalactiae (GC 4564)) | MIC Streptococcus pyogenes (GC 4563) (Streptococcus sp.; Streptococcus pyogenes (GC 4563)) | MIC Streptococcus pyogenes (GC 4563) (Streptococcus sp.; strain GC 4563) | MIC Streptococcus agalactiae (GC 4564) (Streptococcus sp.; strain GC 4564)
<0.06 µg/mL: MIC Streptococcus pneumoniae (GC 1894) (Streptococcus sp.; Streptococcus pneumoniae (GC 1894)) | MIC Streptococcus pneumoniae (GC 4565) (Streptococcus sp.; Streptococcus pneumoniae (GC 4565)) | MIC Streptococcus pneumoniae (GC 1894) (Streptococcus sp.; strain GC 1894) | MIC Streptococcus pneumoniae (GC 4565) (Streptococcus sp.; strain GC 4565)
0.12 µg/mL: MIC Streptococcus pneumoniae (ATCC 6301) (Streptococcus sp.; Streptococcus pneumoniae (ATCC 6301)) | MIC Streptococcus pneumoniae (ATCC 6301) (Streptococcus sp.; strain ATCC 6301)
0.5 µg/mL: MIC Staphylococcus haemolyticus (GC 4546) (Staphylococcus sp.; strain GC 4546)
64 µg/mL: MIC Escherichia coli (ATCC 25922) (Escherichia coli; strain ATCC 25922, 18 hours at 35° C.) | MIC Escherichia coli (GC 4559) (Escherichia coli; strain GC 4559, 18 hours at 35° C.)
0.14 mg/kg: median effective dose (ED50), Staphylococcus aureus-SMITH (GC 4543) [1]
8 µg/mL: MIC Enterococcus faecalis (GC 4552) (Enterococcus sp.; inoculum 5×10^5 CFU/mL) | MIC Enterococcus faecium (GC 4556) (Enterococcus sp.; inoculum 5×10^5 CFU/mL) | MIC Enterococcus faecalis (GC 4552) (Enterococcus sp.) | MIC Enterococcus faecium (GC 4556) (Enterococcus sp.)
